Activity calls are given as the source filed them. A value given as a limit tells only on which side of the number the result lay.

In data set [1] the target is Cytochrome P450 2D6 (Homo sapiens, UniProt P10635).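 Further: CYP2D6 member of a cytochrome P450 panel assay.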
Data set [2] addresses Cytochrome P450 2C9 (Homo sapiens, UniProt P11712).
Data set [3] in a line: Trypanosoma cruzi growth suppression in host cells – NIH3T3 host cells, beta-gal luminescence, confirmation (AID 2044).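 Further: intracellular parasites grown in NIH/3T3 mouse fibroblasts as host cells; luminescent beta-galactosidase reporter signal from transgenic T. cruzi replicating inside host cells; inhibitors lower the luminescence signal.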 It is filed as functional, cell-based.
Data set [4] is described as follows: NIH3T3 cell viability loss – ATP luminescence, mouse fibroblasts, counter-screen, dose response (AID 2010).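 Further: cells exposed to compound for about 90 hours before reading.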 It is filed as functional, cell-based. Background: A counterscreen serves to expose hits that act by an unwanted route or on another target.
The test system of data set [5] is Streptococcus. The data set is described as follows: GAS UMAA2166 growth inhibition – luminescence, BacTiterGlo, counter-screen for streptokinase expression inhibitor project, dose response (AID 1915).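 Further: potency for reduction of bacterial viability or growth.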 It is filed as functional, organism-based.
The subject of data set [6] is Streptococcus sp. 'group A'. The data set can be described thus: Streptococcus pyogenes SK(-)GAS viability under kanamycin – luminescence, BacTiterGlo, confirmation, counter-screen for streptokinase expression inhibitor project, dose response (AID 1900). It is filed as functional, organism-based.
Data set [7] has as its target T1, Streptokinase A (Streptococcus pyogenes serotype M1, UniProt P10520).
T1 sequence (P10520 whole entry): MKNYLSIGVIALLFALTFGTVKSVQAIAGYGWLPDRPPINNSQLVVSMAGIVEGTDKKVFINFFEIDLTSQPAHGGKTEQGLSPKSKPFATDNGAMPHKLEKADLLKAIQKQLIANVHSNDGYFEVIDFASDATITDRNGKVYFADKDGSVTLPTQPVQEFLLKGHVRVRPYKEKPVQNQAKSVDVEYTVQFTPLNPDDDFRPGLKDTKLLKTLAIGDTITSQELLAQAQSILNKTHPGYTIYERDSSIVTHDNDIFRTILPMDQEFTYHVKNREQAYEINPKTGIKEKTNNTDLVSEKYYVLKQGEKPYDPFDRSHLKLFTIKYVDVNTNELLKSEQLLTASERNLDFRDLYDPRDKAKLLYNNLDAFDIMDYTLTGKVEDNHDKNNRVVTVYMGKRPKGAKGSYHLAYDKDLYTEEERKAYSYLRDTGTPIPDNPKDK
The data set is described as follows: viability-normalized secreted streptokinase activity reduction – plasminogen activation absorbance, OD405, dose response (AID 1914).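 Further: secreted streptokinase activity via plasminogen activation per viability signal from cell pellet.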 It is filed as functional, Streptococcus pyogenes M1 GAS.

For data set [8], the target named is Cytochrome P450 2C19 (Homo sapiens, UniProt P33261). The data set can be described thus: Cytochrome panel assay with activity outcomes. Panel member name: p450-cyp2c19 Compounds with AC50 equal or less than 10 uM are considered active. It is filed as functional.
Chain of Cytochrome P450 2C19 (P33261 whole entry): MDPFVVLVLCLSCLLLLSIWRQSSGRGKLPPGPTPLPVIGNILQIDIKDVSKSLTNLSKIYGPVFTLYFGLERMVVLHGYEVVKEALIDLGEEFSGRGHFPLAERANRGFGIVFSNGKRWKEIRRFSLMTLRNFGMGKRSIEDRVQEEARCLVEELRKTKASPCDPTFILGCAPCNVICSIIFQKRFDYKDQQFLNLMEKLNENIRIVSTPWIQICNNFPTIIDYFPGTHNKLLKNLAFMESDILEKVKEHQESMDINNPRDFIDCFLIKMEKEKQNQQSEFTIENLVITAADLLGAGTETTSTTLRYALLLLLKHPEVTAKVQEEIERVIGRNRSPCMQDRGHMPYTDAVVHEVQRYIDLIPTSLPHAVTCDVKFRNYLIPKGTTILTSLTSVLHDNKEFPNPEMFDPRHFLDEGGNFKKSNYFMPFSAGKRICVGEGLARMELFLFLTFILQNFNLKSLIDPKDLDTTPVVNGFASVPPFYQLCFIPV

Chain of Cytochrome P450 2C9 (P11712 whole entry): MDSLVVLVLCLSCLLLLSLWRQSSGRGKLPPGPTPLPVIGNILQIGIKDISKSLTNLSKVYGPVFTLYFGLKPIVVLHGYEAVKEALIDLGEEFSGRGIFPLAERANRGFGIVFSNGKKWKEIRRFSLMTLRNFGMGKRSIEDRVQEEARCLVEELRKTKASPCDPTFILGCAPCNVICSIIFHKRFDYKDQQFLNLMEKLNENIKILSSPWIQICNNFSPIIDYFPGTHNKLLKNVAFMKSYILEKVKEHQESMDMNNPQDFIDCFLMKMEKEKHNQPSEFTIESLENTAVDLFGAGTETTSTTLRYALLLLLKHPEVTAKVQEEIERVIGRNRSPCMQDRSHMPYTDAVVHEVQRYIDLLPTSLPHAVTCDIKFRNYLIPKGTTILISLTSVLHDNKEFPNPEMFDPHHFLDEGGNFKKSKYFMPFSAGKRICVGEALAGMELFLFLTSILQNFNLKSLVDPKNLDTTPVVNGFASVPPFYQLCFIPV
Chain of Cytochrome P450 2D6 (P10635 whole entry): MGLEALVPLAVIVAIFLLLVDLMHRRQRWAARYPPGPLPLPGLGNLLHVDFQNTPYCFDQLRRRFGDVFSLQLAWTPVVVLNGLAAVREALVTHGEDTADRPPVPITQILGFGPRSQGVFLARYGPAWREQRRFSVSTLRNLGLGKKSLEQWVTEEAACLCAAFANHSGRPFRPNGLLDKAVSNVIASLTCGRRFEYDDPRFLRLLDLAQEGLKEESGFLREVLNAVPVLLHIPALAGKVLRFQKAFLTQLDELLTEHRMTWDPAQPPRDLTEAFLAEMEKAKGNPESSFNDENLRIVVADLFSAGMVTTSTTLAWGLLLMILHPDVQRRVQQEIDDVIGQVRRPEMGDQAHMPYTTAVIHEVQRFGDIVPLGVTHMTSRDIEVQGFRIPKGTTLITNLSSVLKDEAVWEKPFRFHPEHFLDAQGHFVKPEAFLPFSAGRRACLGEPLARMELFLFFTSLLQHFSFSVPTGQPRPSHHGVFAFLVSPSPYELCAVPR

`CCC(C)(C)NC(=NC#N)Nc1cccnc1`: in data set [1], the AC50 was 39.8 µM (inconclusive). `Cc1ccc2c(c1)C(=O)[C@@]1(O)CCN(c3ccccc3)C1=N2`: in data set [1], the AC50 was 39.8 µM (inconclusive). For `COc1cccc(Cn2c(=O)c(-c3cccs3)nc3cnc(N4CCOCC4)nc32)c1`, in data set [2], the AC50 is 25.1 µM (inconclusive). With `CCN(CC)S(=O)(=O)c1cccc(C(=O)/C=C2/N(C)c3ccccc3C2(C)C)c1`, the EC50 in data set [3] is 0.739 µM (active); in data set [4], > 60 µM (inconclusive).

As for `Cc1cc(Nc2ccccc2)nn1C(=O)c1ccc(Br)cc1`, the EC50 is > 150 µM (not active) in data set [5], 20.6 µM (active) in data set [6] and > 150 µM (not active) in data set [7]. Take `COc1ccc(COc2cc(-c3cccc(OC)c3)nc3ccc(NC(C)=O)cc23)cc1`: the figures for the EC50 in data set [3] and in data set [4] were 0.728 µM (active) and > 60 µM (not active), respectively. Regarding `C=CCn1c(=O)c(C(=O)NCc2ccccc2)c(O)c2ccccc21`, the half-maximal effective concentration (EC50) was > 150 µM (not active) in data set [5], 20.4 µM (active) in data set [6] and 42.2 µM (active) in data set [7].

`CC(c1ccccc1C(O)c1ccccc1)N(C)C` (stereo not given): the AC50 in data set [2] is 0.0355 µM (inconclusive).

Regarding `CCCCSc1ccc2nc(-c3ccc(C#N)cc3)cn2c1`, the EC50 is 14.4 µM (active) in data set [5], 13.1 µM (active) in data set [6] and > 150 µM (not active) in data set [7]. Consider `COc1ccc(COC2OC[C@]3(C)[C@H]4C5=C(CN3C(=O)OC(C)(C)C)[C@H](C)C(CO)C(CO)C5CC[C@@H]24)cc1` (stereo not given in full), for which the AC50 in data set [8] (read-out: AC50) is 39.8 µM (inconclusive). Consider `COc1cc(-c2cc(C(=O)Nc3ccc(S(=O)(=O)NCc4ccco4)cc3)c3ccccc3n2)cc(OC)c1OC`, for which the EC50 was 1.62 µM (active) in data set [3] and > 60 µM (not active) in data set [4]. In the case of `COc1ccc(S(=O)(=O)Nc2ccc(F)cc2)c(C)c1C`, the AC50 in data set [1] was 0.447 µM (inconclusive).

As for `CCN(CC)S(=O)(=O)c1ccc(N2CCOCC2)c(NC(=O)C2CSC3(C)CCC(=O)N23)c1` (stereo not given), the EC50 in data set [5], in data set [6] and in data set [7] was > 150 µM (not active) in each case. Regarding `CC1(C)CC(=O)C2=C(C1)Oc1nc3ccccc3cc1C2C(C#N)C#N` (stereo not given), the AC50 in data set [1] was 0.112 µM (inconclusive). As to `COc1ccc(S(=O)(=O)NCc2ccc(C(=O)N3CCN(c4ccccn4)CC3)cc2)cc1`, in data set [8] (read-out: AC50), the AC50 was 7.94 µM (inconclusive). As for `O=C(Nc1ccccc1)N1CCC2(CC1)CCN(S(=O)(=O)c1ccccc1)CC2`, in data set [1], the AC50 is 39.8 µM (inconclusive).

As for `CN(C)c1nc(N)ncc1-c1ccc(Oc2ccccc2)cc1`, the results for the EC50 in data set [3] and in data set [4] were 0.231 µM (active) and > 60 µM (not active), respectively. In the case of `COc1ccc(NC(=O)CN(C)C(=O)/C=C/c2cn(-c3ccccc3)nc2-c2ccc(C)cc2)cc1`, the EC50 in data set [3] is 2.17 µM (active); in data set [4], > 60 µM (not active); in data set [5] it was 114 µM (active); in data set [7], > 150 µM (not active). Turning to `CC(=O)N1CCc2cc(S(=O)(=O)N3CCc4ccccc43)ccc21`, the EC50 in data set [5], in data set [6] and in data set [7] was > 150 µM (not active) in each case. On to `O=C(CCN1C(=O)/C(=C/c2ccccc2)SC1=S)NCCCN1CCOCC1`, for which the concentration for a half-maximal effect (EC50) is 2.62 µM (active) in data set [3] and 8.78 µM (active) in data set [4]. As to `Cc1ccc(S(=O)(=O)N(CC(=O)Nc2cccc(N(C)S(C)(=O)=O)c2)c2ccc(Cl)c(Cl)c2)cc1`, the EC50 in data set [3] is 2.14 µM (active); in data set [4] it was > 60 µM (not active). For the compound `Cc1nc2cnc(N3CCNCC3)nc2n(CCc2ccccc2)c1=O`, the AC50 in data set [2] is 39.8 µM (inconclusive). `CCOc1ccc(CC(C(N)=O)C(N)=O)cc1CN(C)C`: the results for the half-maximal activity concentration (AC50) in data set [1] and in data set [8] (read-out: AC50) were 17.8 µM (inconclusive) and 22.4 µM (inconclusive), respectively. For `O=C1c2ccccc2CCC12N=NCC2c1ccc(Br)cc1` (stereo not given), the EC50 is > 150 µM (not active) in data set [5], 22.6 µM (active) in data set [6] and 23.7 µM (active) in data set [7]. As to `c1ccc2c(c1)C(=NC1CCCCC1)N=C2NC1CCCCC1`, the EC50 in data set [3] was 1.27 µM (active); in data set [4], > 60 µM (not active). As to `O=P(O)(CCc1ccccc1)C(O)c1ccccc1` (stereo not given), the AC50 in data set [1] was 35.5 µM (inconclusive). `COc1ccc(CCNC(=O)c2cccc(NS(=O)(=O)c3ccccc3F)c2)cc1OC`: the EC50 in data set [5], in data set [6] and in data set [7] was > 150 µM (not active) in each case.

For `CC1=C(C#N)c2nc(N)c(C#N)c(C)c2/C1=C\c1ccc(C)cc1`, the EC50 is > 150 µM (not active) in data set [5], 4.38 µM (active) in data set [6] and 12.3 µM (active) in data set [7]. Regarding `CN(C)C(=O)CN(c1ccc2c(c1)OCO2)S(C)(=O)=O`, the AC50 in data set [2] is 0.178 µM (inconclusive). As to `Cc1ccc(OCCn2cnc3cc([N+](=O)[O-])ccc3c2=O)cc1`, the values for the EC50 in data set [3] and in data set [4] were 0.366 µM (active) and > 30 µM (not active), respectively.

Take `OC[C@@H]1O[C@@H](O)[C@H](/N=C\c2ccc3c(c2)OCO3)[C@@H](O)[C@@H]1O`: in data set [8], the AC50 entry was “inconclusive”. For `CN(C)C(=O)c1ccc(-c2cncnc2NCc2cccs2)cc1`, the AC50 in data set [1] was 39.8 µM (inconclusive).

With `C[C@@H](C[C@@H](O)[C@H](O)C(C)(C)O)[C@@H]1CC[C@]2(C)C3=CC[C@H]4C(C)(C)C(=O)CC[C@]4(C)[C@H]3CC[C@@]12C`, the EC50 in data set [5] is 5.03 µM (active); in data set [6], 3.13 µM (active); in data set [7] it was > 150 µM (not active). Turning to `COc1ccc(NC(=O)CCNS(=O)(=O)c2ccc3c(c2)CCC(=O)N3)cc1`, in data set [2], the AC50 is 4.47 µM (inconclusive).

With `COc1cc(C(=O)OC(C)C(=O)Nc2ccc3c(c2)OCO3)ccc1OCc1c(C)noc1C` (stereo not given), the AC50 in data set [1] is 28.2 µM (inconclusive). Take `COc1ccc2c3ncn(CCc4c[nH]cn4)c(O)c-3nc2c1`: the EC50 in data set [5], in data set [6] and in data set [7] was > 150 µM (not active) each time. In the case of `O=S(=O)(c1ccccc1)N1CCC2(CCCN(Cc3nccs3)C2)CC1`, the AC50 result in data set [8] is “inconclusive”. As to `COc1ccc(-n2c(=O)c(-c3cccc(F)c3)nc3cncnc32)cc1`, in data set [8] (read-out: AC50), the AC50 is 31.6 µM (inconclusive). In the case of `Cc1nc2sccc2c(=O)n1-c1ccccc1Cl`, the half-maximal activity concentration (AC50) in data set [1] was 14.1 µM (inconclusive). Consider `COc1ccc(C(=O)C2CCCN(Cc3c(C)[nH]c4ccccc34)C2)c(OC)c1` (stereo not given), for which the EC50 is 0.299 µM (active) in data set [3] and > 60 µM (not active) in data set [4]. Consider `C=CCc1cc(/C=C2/NC(=O)N(CC)C2=O)cc(OCC)c1OCc1ccc(C(=O)O)cc1`, for which the EC50 was 105 µM (active) in data set [5], 12.5 µM (active) in data set [6] and > 150 µM (not active) in data set [7].

In the case of `COc1ccc2c(c1)-c1c(sn(-c3ccc(OC)c(OC)c3)c1=S)C(C)(C)N2`, the half-maximal activity concentration (AC50) in data set [2] was 5.01 µM (inconclusive). Turning to `O=C(CSc1ccc(Cl)cc1)NC1=NN(c2ccccc2)C(=O)C1`, the EC50 in data set [5] is 7.17 µM (active); in data set [6], 7.47 µM (active); in data set [7], 9.33 µM (inconclusive). `Cc1cc(NCCO)c2ccccc2n1`: the AC50 in data set [8] (read-out: AC50) is 39.8 µM (inconclusive). `CC(C)C(NC(=O)OCc1ccccc1)C(=O)O` (stereo not given): the AC50 in data set [2] is 11.2 µM (inconclusive). With `NC(=O)C1(N2CCCCC2)CCN(C(=O)c2ccc(-n3cnnn3)cc2)CC1`, in data set [1], the AC50 was 1.58 µM (inconclusive).

Regarding `Cc1ccc(C(=O)/C=C(\O)C(=O)NC23CC4CC(CC(C4)C2)C3)cc1`, the EC50 in data set [5] was > 150 µM (not active); in data set [6], 4.07 µM (active); in data set [7], > 150 µM (not active). In the case of `O/N=C/c1ccccc1OCc1ccc(Cl)cc1`, the AC50 in data set [1] was 22.4 µM (inconclusive); in data set [8] (read-out: AC50), 2.82 µM (inconclusive). On to `O=C(N/N=C/c1ccco1)c1ccccn1`, for which the AC50 entry in data set [8] is reported as “inconclusive”.

With `O=C(CN(c1ccc(Cl)c(C(F)(F)F)c1)S(=O)(=O)c1ccccc1)N/N=C/c1cccc2c1OCCO2`, the EC50 was 95.3 µM (active) in data set [5], 8.38 µM (active) in data set [6] and 32.9 µM (active) in data set [7].

Regarding `O=C(CN1CCCCCCC1)N/N=C/c1ccc([N+](=O)[O-])o1`, the results for the EC50 in data set [3] and in data set [4] were 1.34 µM (active) and > 60 µM (not active), respectively.

Turning to `O=S(=O)(c1cnccc1N1CCN(/N=C/c2ccccc2)CC1)N1CCCCC1`, the AC50 in data set [1] was 25.1 µM (inconclusive).

One may read the AC50 as the midpoint of the concentration-response curve, whichever way the signal moves. For orientation: EC50 means the concentration needed to bring the measured effect to its halfway point.

(Values after ChEMBL document CHEMBL1201862, “PubChem BioAssay data set” (2004).)
